Calls of active or inactive are those of the source. The rule behind the calls is not given here.
System: OTUB2
Experiment: late-stage follow-up, selectivity assay for CCHF vOTU protease inhibitor project, biochemical, fluorescence, assay provider (AID 743475)
Conditions: recombinant OTUB2, fluorogenic ubiquitin substrate, hits give high values

O=C(/C=C/c1ccc(O)cc1)c1ccc(NC2=C(N3CCCCC3)C(=O)c3ccccc3C2=O)cc1
inhibition (run 1, at 10.17 µM): 30.7%

O=C1C=C(Nc2ccccc2)c2ccccc2C1=O
inhibition (run 1, at 15.55 µM): 75.6%

O=C(OCc1nnc(-c2ccccc2)o1)c1ccc([N+](=O)[O-])s1
inhibition (run 1, at 26.04 µM): 46.9%

COc1ccccc1NC(=O)COC(=O)c1ccc([N+](=O)[O-])s1
inhibition (run 1, at 35.07 µM): 61.9%

Cn1nc(-c2ccccn2)nc2c(=O)n(C)c(=O)nc1-2
inhibition (run 1, at 1.16 µM): 98%

CC1(C)C=C2C(=NN(c3ccccc3)C(N)=C2C#N)CO1
inhibition (run 1, at 23.49 µM): 78.2%

O=C1Cc2ccccc2C(=O)N1Cc1ccccc1
inhibition (run 1, at 1.31 µM): 68.4%

NS(=O)(=O)c1ccc(NC2=CC(=O)C(=O)c3ccccc32)cc1
inhibition (run 1, at 11.51 µM): 78.7%

O=C(NC1=CC(=O)c2ccccc2C1=O)c1ccccc1
inhibition (run 1, at 12.37 µM): 46.4%

O=C(COC(=O)c1ccc([N+](=O)[O-])s1)Nc1ccc(F)cc1
inhibition (run 1, at 26.34 µM): 40.3%

COc1cc(Br)c(C(=O)c2nccc3cc(OC)c(OC)cc23)cc1OC
inhibition (run 1, at 1.13 µM): 17.2% (inactive)

NS(=O)(=O)c1ccc(NC(=O)COC(=O)c2ccc([N+](=O)[O-])s2)cc1
inhibition (run 1, at 29.01 µM): 37.5%

O=C(NC1=C(NC2CCS(=O)(=O)C2)C(=O)c2ccccc2C1=O)c1ccccc1 (centres undefined)
inhibition (run 1, at 14.2 µM): 56.9%

COC(CNC(=O)c1ccc2c3c(onc13)-c1ccccc1C2=O)OC
inhibition (run 1, at 24.19 µM): 58.5%

O=C(COC(=O)c1ccc([N+](=O)[O-])s1)NCc1ccc(F)cc1
inhibition (run 1, at 40.58 µM): 39.9%

CCOC(=O)N=Nc1c2ccccc2c2nc3no[nH]c3nc12
inhibition (run 1, at 7.75 µM): 37.8%

O=C(COC(=O)c1ccc([N+](=O)[O-])s1)Nc1ncc(C(F)(F)F)cc1Cl
inhibition (run 1, at 27.79 µM): 42.3%

O=C(c1ccco1)[C@@H]1[C@@H]2C(=O)N(c3ccc(Br)cc3)C(=O)[C@@H]2C2c3ccccc3C=CN21 (some centres undefined)
inhibition (run 1, at 11.01 µM): 91.8%

Cc1c(Cl)cnc(NC(=O)COC(=O)c2ccc([N+](=O)[O-])s2)c1Cl
inhibition (run 1, at 20.44 µM): 49.9%

COc1ccc2noc3c2c1C(=O)c1ccccc1-3
inhibition (run 1, at 6.28 µM): 170%

O=C1Cc2ccccc2C(=O)N1
inhibition (run 1, at 0.6 µM): 67.3%

O=C1Cc2ccccc2C(=O)N1CCc1ccccc1
inhibition (run 2, at 3.02 µM): 14.9% (inactive)

Cc1ccccc1-c1cc2c(nn1)-c1ccccc1C2=O
inhibition (run 2, at 4.46 µM): 23.3%

CCn1nc(/C=C/c2ccccc2)nc2c(=O)n(C)c(=O)nc1-2
inhibition (run 1, at 0.49 µM): 98.8%

Cc1ccc(N2C(=O)[C@@H]3[C@H](C2=O)C2c4ccccc4C=CN2[C@@H]3C(=O)c2ccco2)cc1 (some centres undefined)
inhibition (run 1, at 5.2 µM): 55.4%

CN(C1=C(NC(=O)c2ccccc2)C(=O)c2ccccc2C1=O)C1CCS(=O)(=O)C1 (centres undefined)
inhibition (run 2, at 19.2 µM): 57.8%

CC1COCC(C)N1C1=C(Cl)C(=O)c2ccccc2C1=O (centres undefined)
inhibition (run 1, at 14.67 µM): 23.6%

COC1=C(N)C(=O)c2nc(C)ccc2C1=O
inhibition (run 1, at 4.98 µM): 67.6%

Cc1ccc(NC2=CC(=O)C(=O)c3ccccc32)cc1
inhibition (run 1, at 12.24 µM): 78.7%

CCc1cc[n+](C2=C(NS(=O)(=O)c3cccs3)C(=O)c3ccccc3C2=O)cc1
inhibition (run 1, at 14.16 µM): 54%

O=c1[nH]c(Nc2ccccc2)cc2cc(Br)ccc12
inhibition (run 1, at 1.45 µM): 57.8%

COc1cc(NC(=O)COC(=O)c2ccc([N+](=O)[O-])s2)cc(OC)c1OC
inhibition (run 1, at 21.72 µM): 41.2%

CC1CCCC(NC(=O)COC(=O)c2ccc([N+](=O)[O-])s2)C1C (centres undefined)
inhibition (run 1, at 31.32 µM): 33.7%

Cc1ccc2c(c1C)-c1c(ccc(C)c1C)C(=O)C2=O
inhibition (run 1, at 18.9 µM): 60.1%

From PubChem BioAssay AID743475 (The Scripps Research Institute Molecular Screening Center, 2014)
